According to patent US11767322B2 (BRISTOL-MYERS SQUIBB COMPANY, priority 2020, dated 2023):
Where two headings read alike, the source gives them in different places.

What was measured:
[1] = target: GST-tagged PIK3Cδ in complex with PIK3R1 (Homo sapiens, UniProt O00329); experiment: PI3Kδ HTRF binding assay; conditions: read-out: PIK3CD IC50
[2] = tested on: MLKL phosphorylation in HT29-L23 human colorectal adenocarcinoma cells; experiment: MLKL phosphorylation high-content assay; assay type: cell-based
[3] = target: T1, His-GST-TVMV-hRIPK1(1-324) (Homo sapiens, UniProt Q13546); experiment: biochemical; assay type: binding
T1 construct: The coding region of human RIPK1(1-324) flanked by NdeI site at 5′ end; made in house; host or cells: Spodoptera frugiperda Sf9 insect cells (baculovirus, Bac-to-Bac)
T1 sequence (Q13546 1-324): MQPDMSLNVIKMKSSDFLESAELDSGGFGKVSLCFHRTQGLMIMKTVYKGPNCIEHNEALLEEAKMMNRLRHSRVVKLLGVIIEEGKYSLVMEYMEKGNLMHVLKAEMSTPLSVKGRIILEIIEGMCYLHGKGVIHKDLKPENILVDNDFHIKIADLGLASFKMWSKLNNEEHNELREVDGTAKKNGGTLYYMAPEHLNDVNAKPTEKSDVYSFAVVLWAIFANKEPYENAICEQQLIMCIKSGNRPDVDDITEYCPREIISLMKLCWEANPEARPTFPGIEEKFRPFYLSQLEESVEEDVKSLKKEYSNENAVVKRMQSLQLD

[4] = HTRF probe displacement, 1 h at rt
[5] = read-out: pMLKL IC50, HT29-L23 cells, necroptosis induced with TNFα, SMAC mimetic and Z-VAD, 6 h, maximal inhibition defined by Nec1s
[6] = HTRF probe displacement, 1 h at rt, read-out: RIPK1 IC50
[7] = Homo sapiens, 6 h, read-out: pMLKL IC50, HT29-L23 cells, necroptosis induced with TNFα, SMAC mimetic and Z-VAD, 6 h, maximal inhibition defined by Nec1s
[8] = HT29-L23 cells, necroptosis induced with TNFα, SMAC mimetic and Z-VAD, 6 h, maximal inhibition defined by Nec1s, read-out: pMLKL IC50
[9] = Homo sapiens, 6 h, HT29-L23 cells, necroptosis induced with TNFα, SMAC mimetic and Z-VAD, 6 h, maximal inhibition defined by Nec1s, read-out: pMLKL IC50

Sequence of GST-tagged PIK3Cδ in complex with PIK3R1 (O00329 whole entry): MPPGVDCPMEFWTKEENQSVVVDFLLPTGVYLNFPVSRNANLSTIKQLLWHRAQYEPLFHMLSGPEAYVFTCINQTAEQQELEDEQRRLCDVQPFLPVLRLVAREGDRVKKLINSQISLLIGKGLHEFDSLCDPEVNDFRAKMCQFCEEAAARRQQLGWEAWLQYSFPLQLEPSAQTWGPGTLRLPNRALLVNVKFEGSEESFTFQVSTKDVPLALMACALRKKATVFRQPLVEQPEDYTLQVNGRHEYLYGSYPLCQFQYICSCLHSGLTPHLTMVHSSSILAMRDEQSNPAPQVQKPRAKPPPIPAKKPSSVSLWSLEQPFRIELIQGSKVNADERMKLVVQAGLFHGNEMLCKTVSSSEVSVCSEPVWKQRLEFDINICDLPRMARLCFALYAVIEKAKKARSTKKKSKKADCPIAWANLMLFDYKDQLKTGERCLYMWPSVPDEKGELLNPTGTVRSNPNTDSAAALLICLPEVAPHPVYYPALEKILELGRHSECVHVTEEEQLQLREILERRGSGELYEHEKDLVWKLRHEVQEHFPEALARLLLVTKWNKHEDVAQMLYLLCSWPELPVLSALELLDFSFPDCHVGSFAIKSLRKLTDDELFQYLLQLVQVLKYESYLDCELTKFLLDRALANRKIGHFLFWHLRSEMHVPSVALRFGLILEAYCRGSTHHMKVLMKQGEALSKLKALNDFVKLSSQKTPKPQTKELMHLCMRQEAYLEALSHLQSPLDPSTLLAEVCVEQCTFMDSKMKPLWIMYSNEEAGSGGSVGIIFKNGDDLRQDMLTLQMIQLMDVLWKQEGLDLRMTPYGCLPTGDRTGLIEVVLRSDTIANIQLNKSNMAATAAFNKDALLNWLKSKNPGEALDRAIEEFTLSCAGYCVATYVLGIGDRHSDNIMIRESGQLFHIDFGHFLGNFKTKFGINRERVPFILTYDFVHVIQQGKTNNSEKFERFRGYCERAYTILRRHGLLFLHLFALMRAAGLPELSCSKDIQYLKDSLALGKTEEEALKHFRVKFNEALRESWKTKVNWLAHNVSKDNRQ
Sequence of GST-tagged PIK3Cδ in complex with PIK3R1 (P27986 whole entry partner): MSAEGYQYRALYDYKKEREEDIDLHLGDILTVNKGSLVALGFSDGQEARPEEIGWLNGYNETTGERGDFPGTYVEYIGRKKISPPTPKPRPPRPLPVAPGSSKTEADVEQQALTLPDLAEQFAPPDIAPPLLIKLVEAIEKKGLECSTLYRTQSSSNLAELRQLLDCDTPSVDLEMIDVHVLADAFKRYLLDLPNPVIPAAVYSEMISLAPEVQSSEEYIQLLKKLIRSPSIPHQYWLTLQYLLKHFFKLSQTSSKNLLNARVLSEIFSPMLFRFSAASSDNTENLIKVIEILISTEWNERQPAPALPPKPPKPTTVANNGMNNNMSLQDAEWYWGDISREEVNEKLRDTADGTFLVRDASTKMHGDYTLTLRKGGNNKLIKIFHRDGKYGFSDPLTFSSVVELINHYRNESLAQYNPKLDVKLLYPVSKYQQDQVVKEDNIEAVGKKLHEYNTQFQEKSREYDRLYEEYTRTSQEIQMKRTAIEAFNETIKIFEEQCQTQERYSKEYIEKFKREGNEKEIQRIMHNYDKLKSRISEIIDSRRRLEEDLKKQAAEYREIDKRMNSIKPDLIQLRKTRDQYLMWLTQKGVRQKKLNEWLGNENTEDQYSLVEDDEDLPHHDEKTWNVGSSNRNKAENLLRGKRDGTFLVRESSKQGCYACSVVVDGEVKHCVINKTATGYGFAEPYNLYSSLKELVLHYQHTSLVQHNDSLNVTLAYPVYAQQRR

Row | SMILES | IC50 [1, 4] | IC50 [2, 5] | IC50 [3, 6] | other results
1 | Cc1ccc(-c2ccn3nc(N)nc3c2)c(F)c1C(=O)NC(CF)CC(O)c1ccc(F)cc1 (single isomer, unassigned) [Example 25, 3-(2-amino-[1,2,4]triazolo[1,5-a]pyridin-7-yl)-2-fluoro-N-(1-fluoro-4-(4-fluorophenyl)-4-hydroxybutan-2-yl)-6-methylbenzamide] | > 15 µM | 4.1 nM | 3.6 nM | –
2 | Cc1ccc(-c2ccn3nc(N)nc3c2)c(F)c1C(=O)NCC(F)(F)C(O)c1ccc(Cl)cc1 (stereo not drawn) [Example 29, 3-(2-amino-[1,2,4]triazolo[1,5-a]pyridin-7-yl)-N-(3-(4-chlorophenyl)-2,2-difluoro-3-hydroxypropyl)-2-fluoro-6-methylbenzamide] | > 15 µM | – | 2.2 nM | IC50 [2, 7]: 0.7 nM
3 | Cc1ccc(-c2ccn3nc(N)nc3c2)c(F)c1C(=O)NCCC(O)c1ccc(Cl)cc1F (single isomer, unassigned) [Example 69, 3-(2-amino-[1,2,4]triazolo[1,5-a]pyridin-7-yl)-N-(3-(4-chloro-2-fluorophenyl)-3-hydroxypropyl)-2-fluoro-6-methylbenzamide] | > 15 µM | 0.4 nM | 1.4 nM | –
4 | Cc1c(C(=O)NC(C)CC(O)c2ccc(Cl)cc2)cc(-c2ccn3nc(N)nc3c2)c(F)c1F (racemic) [Example 101, 5-(2-amino-[1,2,4]triazolo[1,5-a]pyridin-7-yl)-N-(4-(4-chlorophenyl)-4-hydroxybutan-2-yl)-3,4-difluoro-2-methylbenzamide] | > 15 µM | 2.9 nM | 4.8 nM | –
5 | Cc1ccc(-c2ccn3nc(N)nc3c2)c(F)c1C(=O)NCC(F)(F)C(O)c1ccc(F)cn1 (stereo not drawn) [Example 115, 3-{2-amino-[1,2,4]triazolo[1,5-a]pyridin-7-yl}-N-[2,2-difluoro-3-(5-fluoropyridin-2-yl)-3-hydroxypropyl]-2-fluoro-6-methylbenzamide] | – | – | 3.6 nM | IC50 [1]: > 15 µM; IC50 [2, 8]: 1.4 nM
6 | Cc1ccc(-c2ccn3nc(N)nc3c2)c(F)c1C(=O)NC(CF)CC(O)c1ccc(F)cc1 (single isomer, unassigned) [Example 26, 3-(2-amino-[1,2,4]triazolo[1,5-a]pyridin-7-yl)-2-fluoro-N-(1-fluoro-4-(4-fluorophenyl)-4-hydroxybutan-2-yl)-6-methylbenzamide] | > 15 µM | 696 nM | 233 nM | –
7 | Cc1c(F)cc(-c2ccn3nc(N)nc3c2)cc1C(=O)NCCC(C)c1ccccc1 (stereo not drawn) [Example 95, 5-{2-amino-[1,2,4]triazolo[1,5-a]pyridin-7-yl}-3-fluoro-2-methyl-N-(3-phenylbutyl)benzamide] | > 15 µM | – | 3 nM | IC50 [2, 7]: 5.9 nM
8 | Cc1ccc(-c2ccn3nc(N)nc3c2)c(Cl)c1C(=O)NCC[C@H](O)c1ccc(Cl)cc1 [Example 145, (S)-3-(2-amino-[1,2,4]triazolo[1,5-a]pyridin-7-yl)-2-chloro-N-(3-(4-chlorophenyl)-3-hydroxypropyl)-6-methylbenzamide] | > 15 µM | – | 21 nM | IC50 [2, 7]: 35 nM
9 | COc1c(-c2ccc(C)c(C(=O)NCC(F)(F)C(O)c3ccc(F)cc3)c2F)ccn2nc(N)nc12 (single isomer, unassigned; enantiomer 1) [Example 135] | > 15 µM | – | – | IC50 [2, 8]: 0.5 nM; IC50 ([3]; RIPK1 IC50): 5.6 nM
10 | Cc1c(F)cc(-c2ccn3nc(N)nc3c2)cc1C(=O)NCC(F)(F)C(O)c1ccc(F)cc1 (single isomer, unassigned) [Example 232, 5-(2-amino-[1,2,4]triazolo[1,5-a]pyridin-7-yl)-N-(2,2-difluoro-3-(4-fluorophenyl)-3-hydroxypropyl)-3-fluoro-2-methylbenzamide] | > 15 µM | 3 nM | 4.5 nM | –
11 | CC(O)(c1ccc(Cl)cc1)C(F)(F)CNC(=O)c1c(Cl)ccc(-c2ccn3nc(N)nc3c2)c1F (single isomer, unassigned) [Example 223, 3-(2-amino-[1,2,4]triazolo[1,5-a]pyridin-7-yl)-6-chloro-N-(3-(4-chlorophenyl)-2,2-difluoro-3-hydroxybutyl)-2-fluorobenzamide] | > 15 µM | 71 nM | 5.8 nM | –
12 | CCc1ccc(-c2ccn3nc(N)nc3c2)c(F)c1C(=O)NCC(F)(F)C(O)c1ccc(F)cn1 (single isomer, unassigned) [Example 266, 3-(2-amino-[1,2,4]triazolo[1,5-a]pyridin-7-yl)-N-(2,2-difluoro-3-(5-fluoropyridin-2-yl)-3-hydroxypropyl)-6-ethyl-2-fluorobenzamide] | > 15 µM | – | 13 nM | IC50 [2, 7]: 2.4 nM
13 | Nc1nc2cc(-c3ccc(Cl)c(C(=O)NCC(F)(F)C(O)c4cc(F)cc(F)c4)c3F)ccn2n1 (stereo not drawn) [Example 189, 3-(2-amino-[1,2,4]triazolo[1,5-a]pyridin-7-yl)-6-chloro-N-(3-(3,5-difluorophenyl)-2,2-difluoro-3-hydroxypropyl)-2-fluorobenzamide] | 5.6 µM | 38 nM | 11 nM | –
14 | Cc1ccc(-c2ccn3nc(N)nc3c2)c(F)c1C(=O)NCC(F)(F)C(C)(O)c1ccc(Cl)cc1 (single isomer, unassigned) [Example 221, 3-(2-amino-[1,2,4]triazolo[1,5-a]pyridin-7-yl)-N-(3-(4-chlorophenyl)-2,2-difluoro-3-hydroxybutyl)-2-fluoro-6-methylbenzamide] | > 15 µM | – | 3.2 nM | IC50 [2, 7]: 0.9 nM
15 | Cc1ccc(-c2ccn3nc(N)nc3c2)c(F)c1C(=O)NCCC(O)c1cccc(F)c1 (single isomer, unassigned) [Example 63, 3-(2-amino-[1,2,4]triazolo[1,5-a]pyridin-7-yl)-2-fluoro-N-(3-(3-fluorophenyl)-3-hydroxypropyl)-6-methylbenzamide] | 13 µM | – | – | IC50 [2, 9]: 1.9 nM
16 | Nc1nc2cc(-c3c(F)ccc(C(=O)NCC[C@H](O)c4ccc(Cl)cc4)c3F)ccn2n1 [Example 219, (S)-3-(2-amino-[1,2,4]triazolo[1,5-a]pyridin-7-yl)-N-(3-(4-chlorophenyl)-3-hydroxypropyl)-2,4-difluorobenzamide] | > 15 µM | – | – | IC50 [2, 9]: 42 nM
17 | Cc1c(C(=O)NC(CF)CC(O)c2ccc(Cl)cc2)cc(-c2ccn3nc(N)nc3c2)c(F)c1F (racemic) [Example 102, 5-(2-amino-[1,2,4]triazolo[1,5-a]pyridin-7-yl)-N-(4-(4-chlorophenyl)-1-fluoro-4-hydroxybutan-2-yl)-3,4-difluoro-2-methylbenzamide] | > 15 µM | – | – | IC50 [2, 8]: 7.6 nM
18 | CC(O)(c1ccc(F)cc1)C(F)(F)CNC(=O)c1c(Cl)ccc(-c2ccn3nc(N)nc3c2)c1F (single isomer, unassigned) [Example 89, 3-(2-amino-[1,2,4]triazolo[1,5-a]pyridin-7-yl)-6-chloro-N-(2,2-difluoro-3-(4-fluorophenyl)-3-hydroxybutyl)-2-fluorobenzamide] | > 15 µM | – | 7.7 nM | –
19 | Cc1c(C(=O)NC(C)CC(O)c2ccc(Cl)cc2)cc(-c2ccn3nc(N)nc3c2)c(F)c1F (racemic) [Example 100, 5-(2-amino-[1,2,4]triazolo[1,5-a]pyridin-7-yl)-N-(4-(4-chlorophenyl)-4-hydroxybutan-2-yl)-3,4-difluoro-2-methylbenzamide] | > 15 µM | 27 nM | – | –
20 | CC(CCNC(=O)c1cc(-c2ccn3nc(N)nc3c2)ccc1Cl)c1ccccc1 (stereo not drawn) [Example 92, 5-(2-amino-[1,2,4]triazolo[1,5-a]pyridin-7-yl)-2-chloro-N-(3-phenylbutyl)benzamide] | 5.2 µM | – | – | IC50 [2, 9]: 11 nM; IC50 ([2]; Homo sapiens, Table 22, compounds of the present invention, read-out: pMLKL IC50): 11 nM
21 | [2H]C([2H])(CC([2H])(O)c1ccc(Cl)cc1)NC(=O)c1c(F)ccc(-c2ccn3nc(N)nc3c2)c1F (single isomer, unassigned) [Example 251, 3-(2-amino-[1,2,4]triazolo[1,5-a]pyridin-7-yl)-N-(3-(4-chlorophenyl)-3-hydroxypropyl-1,1,3-d3)-2,6-difluorobenzamide] | > 15 µM | – | 16 nM | –
22 | COc1c(-c2ccc(C)c(C(=O)NCC[C@H](O)c3ccc(Cl)cc3)c2F)ccn2nc(N)nc12 (single isomer, unassigned; enantiomer 2) [Example 136] | – | – | 5.9 nM | IC50 [1]: > 15 µM
23 | Nc1nc2cc(-c3ccc(Cl)c(C(=O)NCC(F)(F)C(O)c4cnc(Cl)c(Cl)c4)c3F)ccn2n1 (single isomer, unassigned) [Example 271] | 11 µM | – | – | IC50 ([3]; RIPK1 IC50): 1.5 nM
24 | Cc1c(C(=O)NC(CF)CC(O)c2ccc(Cl)cc2)cc(-c2ccn3nc(N)nc3c2)c(F)c1F (racemic) [Example 103, 5-(2-amino-[1,2,4]triazolo[1,5-a]pyridin-7-yl)-N-(4-(4-chlorophenyl)-1-fluoro-4-hydroxybutan-2-yl)-3,4-difluoro-2-methylbenzamide] | > 15 µM | – | – | IC50 [2, 8]: 2060 nM
